Laboratory results as given in patent publication US20230346940A1, “Method And System For Identifying And Validating Shared Candidate Antigens And Shared Antigen-Specific T Lymphocyte Pairs” (National University of Singapore, priority 2019, published 2023).
Entries after “also recorded” stand apart in the source; their conditions may differ.

What was measured:
CD8+ T cells [1] = assay: HLA-A24 tetramer CyTOF screen of CRC patient PBMC; type: cell-based, human; conditions: 10 HLA-A24 positive CRC patients, validation cohort
Method: To determine whether CRC patients have CD8+ T cells that target any of the 75 SVPs that bind to HLA-A24, a CyTOF screen was conducted on a new cohort of 10 HLA-A24 positive CRC patients (validation cohort) using MHC tetramer staining of PBMC (procedure for performing this screen is similar to that described in Example 13). In total, antigen-specific CD8+ T cells that target eight splice variant peptides were identified from this screen.

CD8+ T cells [2] = assay: HLA-A11 tetramer CyTOF screen of CRC patient PBMC; type: cell-based, human; conditions: 8 HLA-A11 positive CRC patients; for antigen specific CD8+ T cells detected in CRC patients: validation cohort
Method: To determine if CRC patients have CD8+ T cells that target any of the 102 peptides that were identified in Example 12, a CyTOF screen was conducted on a new cohort of 8 CRC patients (validation cohort) using MHC tetramer staining of PBMC (FIG. 19(a)). These CRC patients are all positive for HLA-A11.
The 102 peptides were chemically synthesized by Mimotopes. These peptides were loaded onto biotinylated HLA-A11 by UV-mediated exchange. Streptavidin, labelled with three heavy metal barcodes, was bound to the peptide-loaded HLA-A11 to make the HLA-tetramers used for staining PBMCs.
To increase the sensitivity of detecting antigen-specific T cells, two different sets of heavy metal barcodes were used for each peptide. PBMCs from each patient were stained with these two sets of peptide-loaded HLA tetramers. Frequency co-concordance was used as an indication of specific staining for rare events.

CD8 T cells = assay: FACS analysis with fluorescently labelled A11 MHC tetramers; type: cell-based, human; conditions: fresh PBMC isolate from gastric cancer patient SC020
Method: To determine if GC patients have CD8+ T cells that target any of the 77 peptides that were identified in Example 2, a CyTOF screen was conducted on a new cohort of GC patients (the Validation cohort) using MHC tetramer staining of peripheral blood. The CyTOF screen was performed as described in Leong and Newell (2015). Chemically synthesized peptides were supplied by Mimotopes and were stored as dry powder at −20° C. These peptides were loaded onto biotinylated HLA-A11 by UV-mediated exchange. Streptavidin labelled with three heavy metal barcodes was bound to the peptide loaded HLA-A11 to make the HLA-tetramers used for staining peripheral blood (FIG. 7). HLA-A11 tetramer staining of 7 gastric cancer patients derived PBMCs was performed (FIG. 12(a)) and control peptides against the Epstein-Bar Virus (EBV) viral antigen were incorporated as positive control (FIG. 13). […] This antigen was generated from an alternative splicing event of the MARK3 gene identified in Example 2 (FIG. 11(b)). The sequence of the MARK3 splice variant antigen used in the CyTOF studies was RNMSFRIK (SEQ ID NO: 1) and the EBV peptide sequence was […] (SEQ ID NO: 2). […] Patient SC020 was also positive for T Cells that reacted with the positive control peptide from the EBV (FIG. 13). […]

CD8+ T cells [3] = assay: HLA-A11 tetramer CyTOF screen of gastric cancer patient PBMCs; type: cell-based, human; conditions: for CD8+ T-cells capable of recognizing the peptide antigen (HLA-A11 tetramer staining): PBMCs of 7 gastric cancer patients, validation cohort, CyTOF
Description: In one specific example, as shown schematically in FIG. 7, the method 150 may include HLA tetramer staining of peripheral blood, including preparing HLA tetramers by bacterially expressing and purifying biotin tagged HLA loaded with a UV cleavable peptide. Individual shared candidate antigens are then loaded onto the HLA molecule by UV mediated peptide exchange. Addition of heavy metal barcoded streptavidin causes formation of a tetramer comprising a shared candidate antigen. Peripheral blood (e.g. PBMC) from one or more cohort of patients having the medical condition is stained with a pool of the HLA tetramer and analysis is then done using CyTOF.
To determine if GC patients have CD8+ T cells that target any of the 77 peptides that were identified in Example 2, a CyTOF screen was conducted on a new cohort of GC patients (the Validation cohort) using MHC tetramer staining of peripheral blood. The CyTOF screen was performed as described in Leong and Newell (2015). Chemically synthesized peptides were supplied by Mimotopes and were stored as dry powder at −20° C. These peptides were loaded onto biotinylated HLA-A11 by UV-mediated exchange. Streptavidin labelled with three heavy metal barcodes was bound to the peptide loaded HLA-A11 to make the HLA-tetramers used for staining peripheral blood (FIG. 7). HLA-A11 tetramer staining of 7 gastric cancer patients derived PBMCs was performed (FIG. 12(a)) and control peptides against the Epstein-Bar Virus (EBV) viral antigen were incorporated as positive control (FIG. 13). […] This antigen was generated from an alternative splicing event of the MARK3 gene identified in Example 2 (FIG. 11(b)). The sequence of the MARK3 splice variant antigen used in the CyTOF studies was RNMSFRIK (SEQ ID NO: 1) and the EBV peptide sequence was […] (SEQ ID NO: 2). […] Patient SC020 was also positive for T Cells that reacted with the positive control peptide from the EBV (FIG. 13). The presence of the MARK3 splice variant antigen in a fresh PBMC isolate from gastric cancer patient, SC020, was further confirmed by a FACS analysis using fluorescently labelled MARK3-A11-RNMSFRIK peptide tetramers (FIG. 12(b)).

CTLs = assay: ELISPOT assay for IFN-γ in PBMCs from healthy donors; type: cell-based, human; conditions: PBMCs from healthy donors with or without stimulation with peptide
Method: T cells having a shared splice variant antigen, such as MARK3, can be expanded ex-vivo. In the case of MARK3, PBMC were obtained from healthy donors. An aliquot of these PBMCs was used to isolate monocytes (Human Monocyte Isolation Kit, STEMCELL Technologies) for subsequent differentiation to dendritic cells (ImmunoCult Dendritic Cell Culture kit, STEMCELL Technologies). These monocyte derived dendritic cells were treated with mitomycin C (30 μg/ml) to prevent outgrowth of these cells. These dendritic cells were then loaded with MARK3 peptide and used as antigen-presenting cells. CD8+ T cells were isolated (EasySep Human CD8+ T cell isolation kit, STEMCELL Technologies) from another aliquot of PBMCs and these cells were co-cultured with the antigen-presenting cells to stimulate the expansion of MARK3 specific T cells. To generate sufficient number of MARK3-specific T cells for functional characterisation or TCR identification, MARK3 peptide loaded monocyte derived dendritic cells or artificial antigen presenting cells may be used to further stimulate expansion of MARK3 specific T cells. Expansion of MARK3 specific T cells using the above method can be used for the treatment of patients.
Characterization of the MARK3 antigen and CD8+T lymphocytes was carried out by first determining whether MARK3 specific CTLs could be expanded in healthy donor PBMCs (as shown in Example 6). […]

CD8+ T cells [4] = assay: moDC/CD8+ T-cell co-culture of healthy donors, tetramer FACS (immunogenicity); type: cell-based, human; conditions: HLA-A11 positive healthy donors, SVP 2.5 μM loaded moDC, 10 days co-culture, PE/APC tetramers
Description: Antigen specific T-cells for LRR1, GRINA, and ZNF670 were initially identified in the SVP/HLA-A11 tetramer CyTOF screen (as described in Example 13). The immunogenicity of these targets was further assessed by testing whether antigen specific T-cells could be expanded in the PBMC of healthy donors who were HLA-A11 positive. PBMC were obtained from healthy donors and an aliquot was used to isolate monocytes (CD14 positive selection kit, STEMCELL Technologies) for subsequent differentiation to dendritic cells. Briefly, differentiation of monocytes to dendritic cells was carried out by culturing the isolated CD14 cells with IL4 (10 ng/ml) and GM-CSF (800 IU/ml) for 3 days and maturating the dendritic cells with IL4 (10 ng/ml), GM-CSF (800 IU/ml), LPS (10 ng/ml), IFN-γ (100 IU/ml), and the LRR1, GRINA and ZNF670 HLA-A11 SVP (2.5 μM) overnight. These monocyte derived dendritic cells were then cultured with CD8+ T cells which were isolated from another aliquot of PBMCs from the same donor using EasySep CD8 T cell isolation kit, STEMCELL Technologies. After 10 days of co-culture, expansion of antigen-specific T cells was detected by staining with tetramers (labelled with PE and APC) that have been loaded with the LRR1, GRINA and ZNF670 HLA-A11 SVP. […] Antigen-specific T-cells for these SVPs are not observed in CD8+ T cells in unstimulated PBMCs from healthy donors, whereas SVP-specific T-cells can be observed when they have been co-cultured with monocyte-derived dendritic cells that have been loaded with the SVP. In summary, antigen-specific CD8 T cells for LRR1, GRINA and ZNF670 were able to be generated in healthy donors, showing that these SVPs are immunogenic.

[5] = biological target: T1, MARK3 splice variant (inclusion of exon 24; MARK3 isoforms 1 and 3) peptide on HLA-A*11 (human); assay: multimer staining
T1 peptide: RNMSFRFIK

[6] = listed as MARK3 splice variant antigen

## KWPPATETL (MZF1 spliced variant antigen)
CD8+ T cells [1]
  antigen specific CD8+ T cells detected in CRC patients: detected

## LTMAVKAEK (ZC3HAV splice variant antigen) [ZC3HAV1]
CD8+ T cells [2]
  antigen specific CD8+ T cells detected in CRC patients: could be identified in one or more CRC patients

## RNMSFRFIK (MARK3 splice variant) [MARK3 peptide]
CD8 T cells
  presence of antigen-specific CD8 T cells confirmed by FACS: confirmed
CD8+ T cells [3]; CyTOF screen, 7 GC patients
  positive hit out of 7 samples: 14%
CD8+ T cells [3]
  CD8+ T-cells capable of recognizing the peptide antigen (HLA-A11 tetramer staining): one out of 7
CD8+ T cells [3]; [6]
  CD8+ T-cells capable of recognizing the peptide antigen (HLA-A11 tetramer staining): one of the patients, SC020, was found to be positive
CD8+ T cells [3]; listed as MARK3 splice variant peptide
  CD8+ T-cells capable of recognizing the peptide antigen (HLA-A11 tetramer staining): has CTLs that react
CTLs
  IFN-γ secreting CTLs: IFN-γ secreting CTLs are only observed when PBMCs were stimulated with MARK3 peptide
CTLs; [6]
  IFN-γ secreting CTLs: antigenic

## SCVSPSSELK (ZNF670 splice variant antigen)
CD8+ T cells [4]
  expansion of antigen-specific CD8+ T cells (immunogenicity): observed only after stimulation; also recorded: immunogenic
CD8+ T cells [2]
  number of CRC patients in which detected: two
  antigen specific CD8+ T cells detected in CRC patients: could be identified in one or more CRC patients

## SIRQAFIRK (GRINA splice variant antigen)
CD8+ T cells [4]
  expansion of antigen-specific CD8+ T cells (immunogenicity): observed only after stimulation; also recorded: immunogenic
CD8+ T cells [2]
  antigen specific CD8+ T cells detected in CRC patients: could be identified in one or more CRC patients

## SLPRFGYRK (LRR1 splice variant antigen)
CD8+ T cells [4]
  expansion of antigen-specific CD8+ T cells (immunogenicity): observed only after stimulation; also recorded: immunogenic
CD8+ T cells [2]
  antigen specific CD8+ T cells detected in CRC patients: could be identified in one or more CRC patients
CD8+ T cells [2]; listed as SEQ ID NO: 36
  antigen specific CD8+ T cells detected in CRC patients: detected
CD8+ T cells [2]; listed as SLPRFGYRK
  antigen specific CD8+ T cells detected in CRC patients: detected in CRC patients

## SQLDFVKTRK (PARD3 splice variant antigen)
CD8+ T cells [2]
  antigen specific CD8+ T cells detected in CRC patients: could be identified in one or more CRC patients

## SSCSSCPLSK (EBV peptide sequence) [control peptide against the Epstein-Bar Virus (EBV) viral antigen, positive control, reference compound]
CD8+ T cells [3]
  CD8+ T-cells capable of recognizing the peptide antigen (HLA-A11 tetramer staining): positive

## SSFYALEEK (NBPF9 splice variant antigen)
CD8+ T cells [2]
  number of CRC patients in which detected: two
  antigen specific CD8+ T cells detected in CRC patients: could be identified in one or more CRC patients

## SYHSIPSLPRF (LRR1 splice variant antigen)
CD8+ T cells [1]
  antigen specific CD8+ T cells detected in CRC patients: detected in CRC patients
CD8+ T cells [1]; listed as SEQ ID NO: 51
  antigen specific CD8+ T cells detected in CRC patients: detected

## VIVSASRTK (YAF2 splice variant antigen)
CD8+ T cells [2]
  antigen specific CD8+ T cells detected in CRC patients: could be identified in one or more CRC patients

## VTSPSRRSK (CAMKK1 splice variant antigen)
CD8+ T cells [2]
  antigen specific CD8+ T cells detected in CRC patients: could be identified in one or more CRC patients

B1: MARK3-specific TCR (MARK3 TRA chain and MARK3 TRB chain) (TCR, V domains shown)
Valpha: SQKIEQNSEALNIQEGKTATLTCNYTNYSPAYLQWYRQDPGRGPVFLLLIRENEKEKRKERLKVTFDTTLKQSLFHITASQPADSATYLCAPYTGGFKTIFGAGTRLFVKA
Vbeta: DTGVSQNPRHKITKRGQNVTFRCDPISEHNRLYWYRQTLGQGPEFLTYFQNEAQLEKSRLLSDRFSAERPKGSFSTLEIQRTEQGDSAMYLCASSSPRVGYGYTFGSGTRLTVV
[5]
  binding result: recognises
